Patent US12378296B2, “Glucagon analogues as long-acting GLP-1/glucagon receptor agonists in the treatment of fatty liver disease and steatohepatitis” (Boehringer Ingelheim International GmbH, priority 2020, dated 2025)

Assay: Pharmacokinetic parameters after intravenous administration to rats
Type: in vivo
Details: male, Han/Wistar, plasma, rat, i.v. 20 nmol/kg; for MRT: read-out: Mean Residence Time; for half-life: read-out: Terminal half-life (converted)
Description: Pharmacokinetic parameters of the test compounds were determined after intravenous administration to Han/Wistar rats. The acylated GLP-1 analogue semaglutide was also tested for comparison purposes.
Male Wistar rats were obtained from Charles River (Germany) weighing approximately 180 to 210 g at time of arrival at the test facility. Rats were caged in European standard rat cages type IV with light cycle of 12-hour dark and 12-hour light. During the study rats were housed in standard rat cages type III. Both diet Altromin 1324 (Altromin, Germany) and water was administered ad libitum during the whole experimental period. The animals were housed in the test facility for at least 4 days in order to assure proper acclimatization.
The compounds were first dissolved in 0.1% aqueous ammonia to a nominal concentration of 2 mg/ml, and then diluted to the desired dosing strength (10 μM) in sterile PBS containing 25 mM phosphate buffer, pH 7.4. Intravenous injections corresponding to 20 nmol/kg were given via a lateral tail vein.
Blood samples (200 μl) were collected from the periorbital plexus at time points 0.08, 0.25, 0.5, 1, 2, 4, 8, 24, 32 and 48 h post dosing into K3EDTA tubes and centrifuged for 5 minutes at 4° C. within 20 minutes of sampling. Plasma samples (>100 μl) were transferred to 96-well PCR plates, immediately frozen and kept at −20° C. until analysed for plasma concentration for the respective GLP-1-glucagon compound using LC-MS/MS. Individual plasma concentration-time profiles were analysed by a non-compartmental approach using ToxKin™ version 3.2 (Unilog IT Services), and the resulting pharmacokinetic parameters were determined.

| clearance | MRT | half-life | SMILES |
| --- | --- | --- | --- |
| 3.57 mL/h/kg | 28.5 h | 1370 min | CC[C@H](C)[C@H](NC(=O)[C@H](Cc1ccccc1)NC(=O)[C@H](CC(=O)O)NC(=O)[C@H](CCCCN)NC(=O)[C@H](C)NC(=O)[C@H](C)NC(=O)[C@H](CCCNC(=N)N)NC(=O)[C@H](CCC(=O)O)NC(=O)[C@H](CC(=O)O)NC(=O)[C@H](CC(C)C)NC(=O)[C@H](Cc1ccc(O)cc1)NC(=O)[C@H](CCCCN)NC(=O)[C@H](CO)NC(=O)[C@H](Cc1ccc(O)cc1)NC(=O)[C@H](CC(=O)O)NC(=O)[C@H](CO)NC(=O)[C@@H](NC(=O)[C@H](Cc1ccccc1)NC(=O)[C@@H](NC(=O)CNC(=O)[C@H](CCC(N)=O)NC(=O)C1(NC(=O)[C@@H](N)Cc2c[nH]cn2)CCC1)[C@@H](C)O)[C@@H](C)O)C(=O)N[C@@H](CCCCNC(=O)CNC(=O)CNC(=O)[C@H](CO)NC(=O)CNC(=O)[C@H](CO)NC(=O)CNC(=O)CC[C@H](NC(=O)CCCCCCCCCCCCCCCCC(=O)O)C(=O)O)C(=O)N[C@@H](Cc1c[nH]c2ccccc12)C(=O)N[C@@H](CC(C)C)C(=O)N[C@@H](CCC(=O)O)C(=O)N[C@@H](CO)C(=O)N[C@@H](C)C(N)=O [Compound 5] |
| 5.98 mL/h/kg | 23.7 h | 1090 min | CC[C@H](C)[C@H](NC(=O)[C@H](Cc1ccccc1)NC(=O)[C@H](CC(=O)O)NC(=O)[C@H](CCCCN)NC(=O)[C@H](C)NC(=O)[C@H](C)NC(=O)[C@H](CCCNC(=N)N)NC(=O)[C@H](CCC(=O)O)NC(=O)[C@H](CC(=O)O)NC(=O)[C@H](CC(C)C)NC(=O)[C@H](Cc1ccc(O)cc1)NC(=O)[C@H](CCCCN)NC(=O)[C@H](CO)NC(=O)[C@H](Cc1ccc(O)cc1)NC(=O)[C@H](CC(=O)O)NC(=O)[C@H](CO)NC(=O)[C@@H](NC(=O)[C@H](Cc1ccccc1)NC(=O)[C@@H](NC(=O)CNC(=O)[C@H](CCC(N)=O)NC(=O)C1(NC(=O)[C@@H](N)Cc2c[nH]cn2)CCC1)[C@@H](C)O)[C@@H](C)O)C(=O)N[C@@H](CCC(=O)O)C(=O)N[C@@H](Cc1c[nH]c2ccccc12)C(=O)N[C@@H](CC(C)C)C(=O)N[C@@H](CCC(=O)O)C(=O)N[C@@H](CCCCNC(=O)CNC(=O)CNC(=O)[C@H](CO)NC(=O)CNC(=O)[C@H](CO)NC(=O)CNC(=O)CC[C@H](NC(=O)CCCCCCCCCCCCCCCCC(=O)O)C(=O)O)C(=O)N[C@@H](C)C(N)=O [Compound 6] |
